Tests used:
[1] = Half life in mouse plasma incubated up to 1440 mins by mass spectrometric analysis; assay type: ADME, cell-free
[2] = Growth inhibition of mouse GBM cells incubated for 4 days by Celltiter glo assay; assay type: functional, cell-based; settings: 96 h
[3] = Half life in ICR/CD-1 mouse S9 fraction incubated for 0 to 240 mins in presence of NADPH regenerating system by HPLC/MS analysis; assay type: ADME, subcellular; settings: time 0-240 min
GBM = experiment: Growth inhibition of patient derived GBM cells incubated for 4 days by Celltiter glo assay; assay type: functional, cell-based; settings: Homo sapiens, 96 h
[4] = Inhibition of yeast mitochondrial F0F1-ATP synthase by LDH/pyruvate kinase coupled enzyme assay; design: species or system Saccharomyces cerevisiae
[5] = Inhibition of F0F1-ATP synthase in yeast intact mitochondria by LDH/pyruvate kinase coupled enzyme assay; design: species or system Saccharomyces cerevisiae
[6] = Inhibition of mitochondrial complex 1 in human MiaPaCa-2 cells assessed as reduction in oxygen consumption incubated for 24 hrs; assay type: cell-based; settings: mia paca-2
[7] = Ratio of drug level in ICR mouse brain to plasma at 30 mg/kg, po by LC-MS analysis; assay type: ADME, organism-based; settings: read-out: BPR
A549 = experiment: Antiproliferative activity against human A549 cells by IncuCyte live-cell imaging assay; assay type: functional, cell-based
[8] = Antiproliferative activity against human H2030-BrM3 cells by IncuCyte live-cell imaging assay; assay type: functional, cell-based
[9] = Inhibition of mitochondrial pyruvate carrier in Wistar rat liver mitochondria assessed as reduction in [1-14C]pyruvate uptake preincubated for 2 mins followed by rotenone and [1-14C]pyruvate addition by scintillation counting method
[10] = Inhibition of mitochondrial complex 1 in human NCI-H460 cells assessed as reduction in oxygen consumption rate by seahorse analysis; assay type: cell-based
[11] = Oral bioavailability in ICR mouse at 30 mg/kg; assay type: ADME, organism-based; settings: in vivo
[12] = Inhibition of mitochondrial complex 1 in Sprague-Dawley rat heart mitochondria by spectrophotometric method
[13] = target: cAMP and cAMP-inhibited cGMP 3',5'-cyclic phosphodiesterase 10A (Homo sapiens) (UniProt Q9Y233); experiment: Inhibition of PDE10A (unknown origin)
[14] = Inhibition of mitochondrial complex 1 in human A549 cells assessed as oxygen consumption rate by seahorse analysis; assay type: cell-based
[15] = Inhibition of mitochondrial complex 1 in human PC-3 cell mitochondria assessed as reduction in oxygen consumption using glutamate/malate/ADP as substrate by oxygen sensitive fluorescent dye based assay
[16] = Inhibition of mitochondrial complex 1 in human NCI-H460 cells assessed as reduction in cell proliferation incubated for 48 hrs under galactose containing medium by cell titer glow assay; assay type: cell-based; settings: NCI-H460, 48 h
[17] = Cmax in CD1 mouse plasma at 10 mg/kg, ip by LC/MS/MS analysis; assay type: ADME, organism-based; design: route intraperitoneal, dose 10 mg/kg
[18] = Half life in CD1 mouse plasma at 10 mg/kg, ip by LC/MS/MS analysis; assay type: ADME, organism-based
MCF7 = experiment: Inhibition of mammosphere formation in human MCF7 cells incubated for 5 days; assay type: functional, cell-based; settings: MCF7, 120 h
[19] = Inhibition of Cytochrome b-c1 complex I304M/R306K double mutant in Rhodobacter capsulatus MT-RBC1
[20] = Inhibition of mitochondrial complex1 (unknown origin); design: species or system Homo sapiens
[21] = Inhibition of mitochondrial complex 1 in bovine heart mitochondria incubated for 3 hrs and measured up to 30 mins by colorimetric method

Sequence of cAMP and cAMP-inhibited cGMP 3',5'-cyclic phosphodiesterase 10A (Homo sapiens) (Q9Y233 whole entry): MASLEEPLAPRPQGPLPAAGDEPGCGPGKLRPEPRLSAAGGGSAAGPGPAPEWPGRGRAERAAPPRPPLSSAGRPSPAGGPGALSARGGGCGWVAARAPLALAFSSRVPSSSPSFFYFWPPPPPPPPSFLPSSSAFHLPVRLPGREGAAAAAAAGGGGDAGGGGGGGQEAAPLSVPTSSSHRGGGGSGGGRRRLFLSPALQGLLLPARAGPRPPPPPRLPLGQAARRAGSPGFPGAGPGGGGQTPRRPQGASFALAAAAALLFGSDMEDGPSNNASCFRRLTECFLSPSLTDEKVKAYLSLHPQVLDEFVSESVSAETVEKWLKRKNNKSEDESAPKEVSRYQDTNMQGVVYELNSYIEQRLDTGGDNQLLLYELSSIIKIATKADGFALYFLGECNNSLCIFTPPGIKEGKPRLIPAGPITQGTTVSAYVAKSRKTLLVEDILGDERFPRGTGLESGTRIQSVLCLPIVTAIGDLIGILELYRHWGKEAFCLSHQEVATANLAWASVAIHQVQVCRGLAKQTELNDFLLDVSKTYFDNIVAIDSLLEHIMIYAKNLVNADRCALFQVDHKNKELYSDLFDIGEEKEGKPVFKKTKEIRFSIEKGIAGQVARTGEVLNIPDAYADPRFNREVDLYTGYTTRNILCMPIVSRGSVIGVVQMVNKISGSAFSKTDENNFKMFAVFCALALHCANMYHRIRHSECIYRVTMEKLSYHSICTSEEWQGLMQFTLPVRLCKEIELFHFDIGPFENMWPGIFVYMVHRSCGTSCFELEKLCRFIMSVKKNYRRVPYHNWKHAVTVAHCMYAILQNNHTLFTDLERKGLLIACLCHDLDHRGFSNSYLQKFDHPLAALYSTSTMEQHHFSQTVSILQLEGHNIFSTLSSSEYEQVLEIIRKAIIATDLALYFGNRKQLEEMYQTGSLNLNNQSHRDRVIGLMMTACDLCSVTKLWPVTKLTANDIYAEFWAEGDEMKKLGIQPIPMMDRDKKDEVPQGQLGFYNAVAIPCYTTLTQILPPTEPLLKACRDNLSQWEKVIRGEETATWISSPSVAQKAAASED

## CCc1n(CC(=O)O[C@@H]2C[C@H](C)CC[C@H]2C(C)C)c2ccccc2[n+]1C.[Cl-]
[1]
  half-life: 0.0667 h
[2]
  IC50: 0.15 µM
[3]
  half-life: 3.62 h
GBM
  IC50: 1 µM

## COC[C@@H](C[C@H]1O[C@@](O)([C@H](O)[C@@H]2C[C@H](OC)[C@@H](O)CC/C=C(C)/C=C/[C@@H](O[C@@H]3O[C@@H](C)[C@H](OC)[C@@H](O)[C@@H]3O)[C@H](C)/C=C(C)/C=C(C)/C=C(\C)C(=O)O2)[C@H](C)[C@@H](O)[C@H]1C)O[C@H]1C[C@](C)(O)[C@@H](O[C@H]2C[C@@H](OC)[C@H](O)[C@@H](C)O2)[C@H](C)O1
[4]
  Ki: 4 µM
[5]
  Ki: 5 µM

## CN(C)C(=N)NC(=N)N [METFORMIN]
[6]
  IC50: 1100 µM
[7]
  Kp: 0.1
A549
  IC50: 208 µM
[8]
  IC50: 139 µM

## O=C(O)c1nn(Cc2ccc(Cl)cc2Cl)c2ccccc12 [LONIDAMINE]
[9]
  Ki: 2.5 µM

## O=C(NCCCCCCCCCC[P+](c1ccccc1)(c1ccccc1)c1ccccc1)c1nn(Cc2ccc(Cl)cc2Cl)c2ccccc12
A549
  IC50: 0.69 µM
[8]
  IC50: 0.74 µM

## Cc1nc(-c2nc(-c3ccc(OC(F)(F)F)cc3)no2)nn1Cc1cccc(N2CCC(S(C)(=O)=O)CC2)c1
[10]
  IC50: 0.0014 µM

## N=C(NC(=N)N1CCCC1)Nc1ccc(OC(F)(F)F)cc1 [LIXUMISTAT]
[11]
  bioavailability: 72.9%
[7]
  Kp: 0.37

## Cc1ccc(Sc2cccc3[nH]c4nc(N)nc(N)c4c23)cc1
[12]
  IC50: 9.9 µM

## COc1ccc(Cc2nccc3cc(OC)c(OC)cc23)cc1OC [PAPAVERINE]
[13]
  IC20: 0.65 µM
[14]
  IC50: 15.4 µM

## COc1cc2ccnc(Cc3cccc4ccccc34)c2cc1OC
[13]
  IC20: 13.4 µM
[14]
  IC50: 7.2 µM

## Cc1cc(-c2nc(-c3ccc(OC(F)(F)F)cc3)no2)nn1Cc1ccnc(N2CCN(C3CC3)CC2)c1
[15]
  IC50: 0.01 µM
[16]
  EC50: 0.003 µM

## N=C(N)NC(=N)NCCCCCCCCCC[P+](c1ccccc1)(c1ccccc1)c1ccccc1
[6]
  IC50: 0.4 µM

## CC(C)[C@@H]1CC[C@@H](C)C[C@H]1OC(=O)Cn1c(-c2cccc(C(F)(F)F)c2)[n+](C)c2ccccc21.[I-]
[1]
  half-life: 5.1 h
[17]
  Cmax: 375 ng/g
[18]
  half-life: 15.2 h

## O=C1C(O)=C([C@H]2CC[C@H](c3ccc(Cl)cc3)CC2)C(=O)c2ccccc21 [ATOVAQUONE]
MCF7
  IC50: 1 µM
[19]
  IC50: 0.01 µM

## C=C(C)[C@H]1Cc2c(ccc3c2O[C@@H]2COc4cc(OC)c(OC)cc4[C@@H]2C3=O)O1 [ROTENONE]
[20]
  IC50: 0.1 µM

## FC(F)(F)c1ccc(/C=C/c2nc(COc3ccc(CCCCn4ccnn4)cc3)co2)cc1 [MUBRITINIB]
[21]
  IC50: 0.051 µM
